According to patent US8710252B2, “Hepodxilin analog enantiomers” (priority 2006, dated 2014):
Entries after “also recorded” stand apart in the source; their conditions may differ.

Target: T1, Ga14-DBD-PPAR gamma-LBD fusion protein (Homo sapiens, UniProt P37231)
T1 construct: expressed in transfected cells; host or cells: mouse embryonic fibroblasts (MEFs) or ME3 cells
T1 sequence (P37231 238-503 limits assumed): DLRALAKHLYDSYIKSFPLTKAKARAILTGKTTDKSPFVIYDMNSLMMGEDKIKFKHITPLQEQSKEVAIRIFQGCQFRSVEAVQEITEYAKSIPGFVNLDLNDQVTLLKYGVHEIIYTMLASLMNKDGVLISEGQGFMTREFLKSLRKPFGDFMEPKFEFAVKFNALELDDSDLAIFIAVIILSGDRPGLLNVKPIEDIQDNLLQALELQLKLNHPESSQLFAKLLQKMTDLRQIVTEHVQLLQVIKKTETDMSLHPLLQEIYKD
Test: PPAR gamma transactivation assay (Gal4-PPAR gamma LBD / UASx4-TK-luc reporter)
Format: cell-based
Text: The UASx4-TK-luc reporter construct (where UAS refers to “upstream activator sequence”) contains four Ga14-responsive elements. The plasmid Ga14-PPAR gammaLBD encodes a Ga14-DBD-PPAR gamma-LBD fusion protein (i.e. the DNA-binding domain, DBD, of Ga14 fused to the ligand-binding domain, LBD, of PPAR gamma) capable of transactivating the UASx4-TK-luc reporter plasmid by binding to the UAS. The CMV-beta-galactosidase plasmid (where CMV is cytomegalovirus) was used for normalization of experimental values.
The cells were replated, typically in 24 well plates, so that at the time of transfection the cells were 50-70% confluent.
Briefly, per well in a 24 well plate, UASx4TKIuc (0.2 microg) Ga14-PPAR gammaLBD (or pM-hPPAR gamma-LBD; 0.1 microg) and CMV-beta-galactosidase (0.05 microg) in 30 μL DMEM (free of serum and antibiotics) was mixed with 30 microL DMEM (free of serum and antibiotics) containing 1 microL metafectenein. The mixture was incubated at room temperature for 20 min to allow formation of nucleic acid-lipid complexes and then approximately 60 micros was added to each well containing the 50-70% confluent cells. […] Cells were harvested after 12-24 hours and luciferase and beta-galactosidase activities were measured according to standard protocols.
Each experiment was carried out with triplicate samples with 0.1, 1 or 10 microM racemate or purified enantiomer.

Structure (SMILES): CCCCC/C=C\CC1CC1/C=C/C(O)C/C=C\CCCC(=O)OC (stereo not drawn) [Compound E, 8R-hydroxy-11S,12S-cyclopropyl-eicosa-5Z,9E,14Z-trienoic acid methyl ester]
- PPAR Activation as % of positive control (Avandia) (Experiment 1, 0.1 microM): 5 +/− 1 % of positive control (Avandia)
- PPAR Activation as % of positive control (Avandia) (Experiment 1, 1 microM): 11 +/− 1 % of positive control (Avandia)
- PPAR Activation as % of positive control (Avandia) (Experiment 1, 10 microM): 55 +/− 8 % of positive control (Avandia)
- PPAR Activation as % of positive control (Avandia) (Experiment 2, 0.1 microM): 4 +/− 1 % of positive control (Avandia)
- PPAR Activation as % of positive control (Avandia) (Experiment 2, 1 microM): 4 +/− 1 % of positive control (Avandia)
- PPAR Activation as % of positive control (Avandia) (Experiment 2, 10 microM): 14 +/− 2 % of positive control (Avandia)
- PPAR Activation as % of positive control (Avandia) (Experiment 3, 0.1 microM): 7 +/− 3 % of positive control (Avandia)
- PPAR Activation as % of positive control (Avandia) (Experiment 3, 1 microM): 11 +/− 2 % of positive control (Avandia)
- PPAR Activation as % of positive control (Avandia) (Experiment 3, 10 microM): 27 +/− 7 % of positive control (Avandia)

Structure (SMILES): CCCCC/C=C\C[C@@H]1C[C@H]1/C=C/[C@@H](O)C/C=C\CCCC(=O)OC [Compound F, 8S-hydroxy-11R,12R-cyclopropyl-eicosa-5Z,9E,14Z-trienoic acid methyl ester]
- PPAR gamma transactivation, result in words: significantly more activity than Compound E or the racemic mixture of PBT-1; also recorded: significantly better PPAR gamma transactivation activity; also recorded: higher fold PPAR gamma transactivation than compound E or the PBT-1 racemic mixture
- PPAR Activation as % of positive control (Avandia) (Experiment 1, 0.1 microM): 7 +/− 1 % of positive control (Avandia)
- PPAR Activation as % of positive control (Avandia) (Experiment 1, 1 microM): 12 +/− 7 % of positive control (Avandia)
- PPAR Activation as % of positive control (Avandia) (Experiment 1, 10 microM): 92 +/− 7 % of positive control (Avandia)
- PPAR Activation as % of positive control (Avandia) (Experiment 2, 0.1 microM): 5 +/− 1 % of positive control (Avandia)
- PPAR Activation as % of positive control (Avandia) (Experiment 2, 1 microM): 5 +/− 5 % of positive control (Avandia)
- PPAR Activation as % of positive control (Avandia) (Experiment 2, 10 microM): 69 +/− 12 % of positive control (Avandia)
- PPAR Activation as % of positive control (Avandia) (Experiment 3, 0.1 microM): 8 +/− 2 % of positive control (Avandia)
- PPAR Activation as % of positive control (Avandia) (Experiment 3, 1 microM): 18 +/− 5 % of positive control (Avandia)
- PPAR Activation as % of positive control (Avandia) (Experiment 3, 10 microM): 78 +/− 34 % of positive control (Avandia)

Structure (SMILES): CCCCC/C=C\CC1CC1/C=C/C(O)C/C=C\CCCC(=O)OC (stereo not shown) [PBT-1, 8-hydroxy-11,12-cyclopropyl-eicosa-5Z,9E,14Z-trienoic acid methyl ester, reference compound]
- PPAR Activation as % of positive control (Avandia) (10 microM racemate, Table 3): 21 +/− 2 % of positive control (Avandia)
- PPAR Activation as % of positive control (Avandia) (Experiment 1, 0.1 microM): 17 +/− 2 % of positive control (Avandia)
- PPAR Activation as % of positive control (Avandia) (Experiment 1, 1 microM): 57 +/− 6 % of positive control (Avandia)
- PPAR Activation as % of positive control (Avandia) (Experiment 2, 0.1 microM): 7 +/− 1 % of positive control (Avandia)
- PPAR Activation as % of positive control (Avandia) (Experiment 2, 1 microM): 35 +/− 5 % of positive control (Avandia)
- PPAR Activation as % of positive control (Avandia) (Experiment 3, 0.1 microM): 6 +/− 2 % of positive control (Avandia)
- PPAR Activation as % of positive control (Avandia) (Experiment 3, 1 microM): 34 +/− 2 % of positive control (Avandia)
- PPAR Activation as % of positive control (Avandia) (Experiment 3, 10 microM): 58 +/− 12 % of positive control (Avandia)

Structure (SMILES): CCCCC/C=C\CC1CC1/C=C/C(O)C/C=C\CCCC(=O)O (stereo not shown) [PBT-01, 8-hydroxy-11,12-cyclopropyl-eicosa-5Z,9E,14Z-trienoic acid, reference compound]
- PPAR gamma transactivation, result in words: active
- PPAR Activation as % of positive control (Avandia) (10 microM racemate, Table 3): 16 +/− 4 % of positive control (Avandia)

Structure (SMILES): CCCCC/C=C\CC1CC1/C=C/C(O)C/C=C\CCCC(=O)OC (stereo not shown) [PBT-2, 8-hydroxy-11,12-cyclopropyl-eicosa-5Z,9E,14Z-trienoic acid methyl ester, reference compound]
- PPAR Activation as % of positive control (Avandia) (10 microM racemate, Table 3): 27 +/− 5 % of positive control (Avandia)

Structure (SMILES): CCCCC/C=C\CC1CC1/C=C/C(O)C/C=C\CCCC(=O)O (stereo not shown) [PBT-02, 8-hydroxy-11,12-cyclopropyl-eicosa-5Z,9E,14Z-trienoic acid, reference compound]
- PPAR gamma transactivation, result in words: active
- PPAR Activation as % of positive control (Avandia) (10 microM racemate, Table 3): 17 +/− 2 % of positive control (Avandia)

Structure (SMILES): CCCCC/C=C\CC1CC1C(O)/C=C\C/C=C\CCCC(=O)O (stereo not shown) [PBT-03, 10-hydroxy-11,12-cyclopropyl-eicosa-5Z,8Z,14Z-trienoic acid, reference compound]
- PPAR gamma transactivation, result in words: active
- PPAR Activation as % of positive control (Avandia) (10 microM racemate, Table 3): 14 +/− 4 % of positive control (Avandia)
